# According to ChEMBL document CHEMBL3044736, “Synthesis, characterization, solvatochromic properties, and antimicrobial evaluation of 5-acetyl-2-thioxo-dihydro-pyrimidine-4,6-dione-based chalcones” (2013):
# Tests used:
# Assay type in all cases: functional
# [1] = tested on: Streptococcus pyogenes; assay: Antimicrobial activity against Streptococcus pyogenes MTCC 442 by agar cup diffusion method
# [2] = tested on: Pseudomonas aeruginosa; assay: Antimicrobial activity against Pseudomonas aeruginosa MTCC 1688 by agar cup diffusion method
# [3] = tested on: Streptococcus pyogenes; assay: Antimicrobial activity against Streptococcus pyogenes MTCC 442 assessed as diameter of growth inhibition zone at 100 ug/ml after 18-24 hr by agar cup diffusion method; conditions: read-out: DIZ
# [4] = tested on: Penicillium; assay: Antimicrobial activity against Penicillium wild strain by agar cup diffusion method
# [5] = tested on: Candida albicans; assay: Antimicrobial activity against Candida albicans MTCC 227 assessed as diameter of growth inhibition zone at 100 ug/ml after 48-96 hr by agar cup diffusion method; conditions: read-out: DIZ
# [6] = tested on: Streptococcus pyogenes; assay: Antimicrobial activity against Streptococcus pyogenes MTCC 442 assessed as diameter of growth inhibition zone at 50 ug/ml after 18-24 hr by agar cup diffusion method; conditions: read-out: DIZ
# [7] = tested on: Klebsiella pneumoniae; assay: Antimicrobial activity against Klebsiella pneumoniae MTCC 109 assessed as diameter of growth inhibition zone at 25 ug/ml after 18-24 hr by agar cup diffusion method; conditions: read-out: DIZ
# [8] = tested on: Candida albicans; assay: Antimicrobial activity against Candida albicans MTCC 227 assessed as diameter of growth inhibition zone at 250 ug/ml after 48-96 hr by agar cup diffusion method; conditions: read-out: DIZ
# [9] = tested on: Pseudomonas aeruginosa; assay: Antimicrobial activity against Pseudomonas aeruginosa MTCC 1688 assessed as diameter of growth inhibition zone at 250 ug/ml after 18-24 hr by agar cup diffusion method; conditions: read-out: DIZ
# [10] = tested on: Staphylococcus aureus; assay: Antimicrobial activity against Staphylococcus aureus MTCC 96 assessed as diameter of growth inhibition zone at 250 ug/ml after 18-24 hr by agar cup diffusion method; conditions: read-out: DIZ
# [11] = tested on: Klebsiella pneumoniae; assay: Antimicrobial activity against Klebsiella pneumoniae MTCC 109 assessed as diameter of growth inhibition zone at 50 ug/ml after 18-24 hr by agar cup diffusion method; conditions: read-out: DIZ
# [12] = tested on: Trichophyton rubrum; assay: Antimicrobial activity against Trichophyton rubrum MTCC 296 assessed as diameter of growth inhibition zone at 25 ug/ml after 48-96 hr by agar cup diffusion method; conditions: read-out: DIZ
# [13] = tested on: Aspergillus clavatus; assay: Antimicrobial activity against Aspergillus clavatus MTCC 1323 assessed as diameter of growth inhibition zone at 50 ug/ml after 48-96 hr by agar cup diffusion method; conditions: read-out: DIZ
# [14] = tested on: Klebsiella pneumoniae; assay: Antimicrobial activity against Klebsiella pneumoniae MTCC 109 assessed as diameter of growth inhibition zone at 250 ug/ml after 18-24 hr by agar cup diffusion method; conditions: read-out: DIZ
# [15] = tested on: Streptococcus pyogenes; assay: Antimicrobial activity against Streptococcus pyogenes MTCC 442 assessed as diameter of growth inhibition zone at 25 ug/ml after 18-24 hr by agar cup diffusion method; conditions: read-out: DIZ
# [16] = tested on: Pseudomonas aeruginosa; assay: Antimicrobial activity against Pseudomonas aeruginosa MTCC 1688 assessed as diameter of growth inhibition zone at 50 ug/ml after 18-24 hr by agar cup diffusion method; conditions: read-out: DIZ
# [17] = tested on: Escherichia coli; assay: Antimicrobial activity against Escherichia coli MTCC 443 by agar cup diffusion method
# [18] = tested on: Pseudomonas aeruginosa; assay: Antimicrobial activity against Pseudomonas aeruginosa MTCC 1688 assessed as diameter of growth inhibition zone at 25 ug/ml after 18-24 hr by agar cup diffusion method; conditions: read-out: DIZ
# [19] = tested on: Staphylococcus aureus; assay: Antimicrobial activity against Staphylococcus aureus MTCC 96 by agar cup diffusion method
# [20] = tested on: Klebsiella pneumoniae; assay: Antimicrobial activity against Klebsiella pneumoniae MTCC 109 assessed as diameter of growth inhibition zone at 100 ug/ml after 18-24 hr by agar cup diffusion method; conditions: read-out: DIZ
# [21] = tested on: Staphylococcus aureus; assay: Antimicrobial activity against Staphylococcus aureus MTCC 96 assessed as diameter of growth inhibition zone at 25 ug/ml after 18-24 hr by agar cup diffusion method; conditions: read-out: DIZ
# [22] = tested on: Candida albicans; assay: Antimicrobial activity against Candida albicans MTCC 227 assessed as diameter of growth inhibition zone at 50 ug/ml after 48-96 hr by agar cup diffusion method; conditions: read-out: DIZ
# [23] = tested on: Klebsiella pneumoniae; assay: Antimicrobial activity against Klebsiella pneumoniae MTCC 109 by agar cup diffusion method
# [24] = tested on: Streptococcus pyogenes; assay: Antimicrobial activity against Streptococcus pyogenes MTCC 442 assessed as diameter of growth inhibition zone at 250 ug/ml after 18-24 hr by agar cup diffusion method; conditions: read-out: DIZ
# [25] = tested on: Aspergillus clavatus; assay: Antimicrobial activity against Aspergillus clavatus MTCC 1323 assessed as diameter of growth inhibition zone at 250 ug/ml after 48-96 hr by agar cup diffusion method; conditions: read-out: DIZ
# [26] = tested on: Trichophyton rubrum; assay: Antimicrobial activity against Trichophyton rubrum MTCC 296 assessed as diameter of growth inhibition zone at 250 ug/ml after 48-96 hr by agar cup diffusion method; conditions: read-out: DIZ
# [27] = tested on: Trichophyton rubrum; assay: Antimicrobial activity against Trichophyton rubrum MTCC 296 assessed as diameter of growth inhibition zone at 50 ug/ml after 48-96 hr by agar cup diffusion method; conditions: read-out: DIZ
# [28] = tested on: Aspergillus clavatus; assay: Antimicrobial activity against Aspergillus clavatus MTCC 1323 assessed as diameter of growth inhibition zone at 100 ug/ml after 48-96 hr by agar cup diffusion method; conditions: read-out: DIZ
# [29] = tested on: Escherichia coli; assay: Antimicrobial activity against Escherichia coli MTCC 443 assessed as diameter of growth inhibition zone at 25 ug/ml after 18-24 hr by agar cup diffusion method; conditions: read-out: DIZ
# [30] = tested on: Penicillium; assay: Antimicrobial activity against Penicillium wild strain assessed as diameter of growth inhibition zone at 25 ug/ml after 48-96 hr by agar cup diffusion method; conditions: read-out: DIZ
# [31] = tested on: Escherichia coli; assay: Antimicrobial activity against Escherichia coli MTCC 443 assessed as diameter of growth inhibition zone at 250 ug/ml after 18-24 hr by agar cup diffusion method; conditions: read-out: DIZ
# [32] = tested on: Staphylococcus aureus; assay: Antimicrobial activity against Staphylococcus aureus MTCC 96 assessed as diameter of growth inhibition zone at 100 ug/ml after 18-24 hr by agar cup diffusion method; conditions: read-out: DIZ
# [33] = tested on: Penicillium; assay: Antimicrobial activity against Penicillium wild strain assessed as diameter of growth inhibition zone at 50 ug/ml after 48-96 hr by agar cup diffusion method; conditions: read-out: DIZ
# [34] = tested on: Candida albicans; assay: Antimicrobial activity against Candida albicans MTCC 227 assessed as diameter of growth inhibition zone at 25 ug/ml after 48-96 hr by agar cup diffusion method; conditions: read-out: DIZ
# [35] = tested on: Pseudomonas aeruginosa; assay: Antimicrobial activity against Pseudomonas aeruginosa MTCC 1688 assessed as diameter of growth inhibition zone at 100 ug/ml after 18-24 hr by agar cup diffusion method; conditions: read-out: DIZ
# [36] = tested on: Escherichia coli; assay: Antimicrobial activity against Escherichia coli MTCC 443 assessed as diameter of growth inhibition zone at 100 ug/ml after 18-24 hr by agar cup diffusion method; conditions: read-out: DIZ
# [37] = tested on: Candida albicans; assay: Antimicrobial activity against Candida albicans MTCC 227 by agar cup diffusion method
# [38] = tested on: Trichophyton rubrum; assay: Antimicrobial activity against Trichophyton rubrum MTCC 296 by agar cup diffusion method
# [39] = tested on: Staphylococcus aureus; assay: Antimicrobial activity against Staphylococcus aureus MTCC 96 assessed as diameter of growth inhibition zone at 50 ug/ml after 18-24 hr by agar cup diffusion method; conditions: read-out: DIZ
# [40] = tested on: Escherichia coli; assay: Antimicrobial activity against Escherichia coli MTCC 443 assessed as diameter of growth inhibition zone at 50 ug/ml after 18-24 hr by agar cup diffusion method; conditions: read-out: DIZ
# [41] = tested on: Aspergillus clavatus; assay: Antimicrobial activity against Aspergillus clavatus MTCC 1323 assessed as diameter of growth inhibition zone at 25 ug/ml after 48-96 hr by agar cup diffusion method; conditions: read-out: DIZ
# [42] = tested on: Aspergillus clavatus; assay: Antimicrobial activity against Aspergillus clavatus MTCC 1323 by agar cup diffusion method
# [43] = tested on: Penicillium; assay: Antimicrobial activity against Penicillium wild strain assessed as diameter of growth inhibition zone at 100 ug/ml after 48-96 hr by agar cup diffusion method; conditions: read-out: DIZ
# [44] = tested on: Penicillium; assay: Antimicrobial activity against Penicillium wild strain assessed as diameter of growth inhibition zone at 250 ug/ml after 48-96 hr by agar cup diffusion method; conditions: read-out: DIZ
# [45] = tested on: Trichophyton rubrum; assay: Antimicrobial activity against Trichophyton rubrum MTCC 296 assessed as diameter of growth inhibition zone at 100 ug/ml after 48-96 hr by agar cup diffusion method; conditions: read-out: DIZ
smiles,measurement,setting,value
COc1ccc(/C=C/C(=O)C2C(=O)NC(=S)NC2=O)cc1OC,MBC,[1],100 µg/mL
same,MIC,[1],62.5 µg/mL
same,MBC,[2],200 µg/mL
same,MIC,[2],200 µg/mL
same,zone of inhibition at 100 µg/mL,[3],18 mm
same,MFC,[4],1000 µg/mL
same,MIC,[4],1000 µg/mL
same,zone of inhibition at 100 µg/mL,[5],25 mm
same,zone of inhibition at 50 µg/mL,[6],16 mm
same,zone of inhibition at 25 µg/mL,[7],14 mm
same,zone of inhibition at 250 µg/mL,[8],25 mm
same,zone of inhibition at 250 µg/mL,[9],20 mm
same,zone of inhibition at 250 µg/mL,[10],20 mm
same,zone of inhibition at 50 µg/mL,[11],15 mm
same,zone of inhibition at 25 µg/mL,[12],21 mm
same,zone of inhibition at 50 µg/mL,[13],20 mm
same,zone of inhibition at 250 µg/mL,[14],19 mm
same,zone of inhibition at 25 µg/mL,[15],12 mm
same,zone of inhibition at 50 µg/mL,[16],15 mm
same,MBC,[17],500 µg/mL
same,MIC,[17],500 µg/mL
same,zone of inhibition at 25 µg/mL,[18],11 mm
same,MBC,[19],500 µg/mL
same,MIC,[19],500 µg/mL
same,zone of inhibition at 100 µg/mL,[20],18 mm
same,zone of inhibition at 25 µg/mL,[21],11 mm
same,zone of inhibition at 50 µg/mL,[22],24 mm
same,MBC,[23],500 µg/mL
same,MIC,[23],250 µg/mL
same,zone of inhibition at 250 µg/mL,[24],21 mm
same,zone of inhibition at 250 µg/mL,[25],23 mm
same,zone of inhibition at 250 µg/mL,[26],24 mm
same,zone of inhibition at 50 µg/mL,[27],22 mm
same,zone of inhibition at 100 µg/mL,[28],21 mm
same,zone of inhibition at 25 µg/mL,[29],12 mm
same,zone of inhibition at 25 µg/mL,[30],19 mm
same,zone of inhibition at 250 µg/mL,[31],21 mm
same,zone of inhibition at 100 µg/mL,[32],18 mm
same,zone of inhibition at 50 µg/mL,[33],20 mm
same,zone of inhibition at 25 µg/mL,[34],20 mm
same,zone of inhibition at 100 µg/mL,[35],18 mm
same,zone of inhibition at 100 µg/mL,[36],18 mm
same,MFC,[37],1000 µg/mL
same,MIC,[37],500 µg/mL
same,MFC,[38],500 µg/mL
same,MIC,[38],500 µg/mL
same,zone of inhibition at 50 µg/mL,[39],15 mm
same,zone of inhibition at 50 µg/mL,[40],16 mm
same,zone of inhibition at 25 µg/mL,[41],18 mm
same,MFC,[42],1000 µg/mL
same,MIC,[42],1000 µg/mL
same,zone of inhibition at 100 µg/mL,[43],22 mm
same,zone of inhibition at 250 µg/mL,[44],24 mm
same,zone of inhibition at 100 µg/mL,[45],23 mm
